We go through one cell line from the supplement of paper PMC10307832.

Common to all, as to assay: relative viability (nuclei count vs DMSO), 5 days (fraction); higher = more cells survive
Compound in the assay “4EGI-1 + Linsitinib”: O=C(O)C(Cc1ccccc1[N+](=O)[O-])=NNc1nc(-c2ccc(Cl)c(Cl)c2)cs1 (mixture of isomers) [4EGI-1] + C[C@]1(O)C[C@@H](c2nc(-c3ccc4ccc(-c5ccccc5)nc4c3)c3c(N)nccn32)C1 [Linsitinib] (partner 1 µM)
The procedure, abridged: (§1)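 For relative viability, nuclei counts in treated wells were divided by those in vehicle wells. Lung cancer cell lines had been pin-tool dosed in 1536-well plates the day after seeding and cultured for 5 days, then fixed and stained in one step (final 0.05% Triton X-100, 1% formaldehyde, 1 ug/ml Hoechst) and imaged at 4×. Doses were one drug alone or a fixed anchor-drug dose plus five library-drug doses (not always all listed) in √10 steps, and values are duplicate-plate medians.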

Compound in the assay “XMD8-85 + Phenformin”: CN1CCN(CC1)C2=CC(=C(C=C2)NC3=NC=C4C(=N3)N(C5=CC=CC=C5C(=O)N4C)C)OC [XMD8-85] + N=C(N)NC(=N)NCCc1ccccc1 [Phenformin] (partner 250 µM)
Put shortly: as §1

Compound in the assay “4EGI-1 + Trametinib”: O=C(O)C(Cc1ccccc1[N+](=O)[O-])=NNc1nc(-c2ccc(Cl)c(Cl)c2)cs1 (mixture of isomers) [4EGI-1] + CC(=O)Nc1cccc(-n2c(=O)n(C3CC3)c(=O)c3c(Nc4ccc(I)cc4F)n(C)c(=O)c(C)c32)c1 [Trametinib] (partner 0.02 µM)
Put shortly: as §1

Compound in the assay “XMD8-85 + Olaparib”: CN1CCN(CC1)C2=CC(=C(C=C2)NC3=NC=C4C(=N3)N(C5=CC=CC=C5C(=O)N4C)C)OC [XMD8-85] + O=C(c1cc(Cc2n[nH]c(=O)c3ccccc23)ccc1F)N1CCN(C(=O)C2CC2)CC1 [Olaparib] (partner 8 µM)
The procedure, abridged: as §1

Take NCI-H1792: the relative viability with 4EGI-1 + Linsitinib (first compound 0.5 µM) was 0.613; with 4EGI-1 + Linsitinib (first compound 1.581 µM), 0.444; with 4EGI-1 + Linsitinib (first compound 5 µM) it was 0.48; with 4EGI-1 + Linsitinib (first compound 15.81 µM), 0.441; with 4EGI-1 + Linsitinib (first compound 50 µM) it was 0.472; with XMD8-85 + Phenformin (first compound 0.253 µM), 0.268. For the same cell line, the relative viability with XMD8-85 + Phenformin (first compound 2.53 µM) was found to be 0.257; in the assay with XMD8-85 + Phenformin (first compound 8 µM) it was 0.486; with 4EGI-1 + Trametinib (first compound 0.5 µM), 0.524; in the assay with 4EGI-1 + Trametinib (first compound 1.581 µM), 0.428; with 4EGI-1 + Trametinib (first compound 5 µM), 0.359; with 4EGI-1 + Trametinib (first compound 15.81 µM) it was 0.479. The relative viability worked out at 0.366 in the assay with 4EGI-1 + Trametinib (first compound 50 µM); 0.526 with XMD8-85 + Olaparib (first compound 0.253 µM); 0.298 with XMD8-85 + Olaparib (first compound 0.8 µM); 0.284 with XMD8-85 + Olaparib (first compound 2.53 µM); 0.318 with XMD8-85 + Olaparib (first compound 8 µM).
